Reference: US10231954B2, “Neurodegenerative therapies” (LYTIX BIOPHARMA AS, priority 2014, dated 2019)

Columns and labels:
Assay type in all cases: biochemical
[1] = target: DYRK1A (Homo sapiens, UniProt Q13627); test: Determination of IC50 values against DYRK1a; conditions: average of duplicate; 10 concentrations 100 μM to 0.003 μM; read-out: IC 50 against DYRK1a
Procedure: The kinase assay was carried out using Multidrop 384's at room temperature in a total assay volume of 25.5 μl. To plates containing 0.5 μl of compounds, DMSO controls or acid blanks, 15 μl of an enzyme mix containing the DYRK1a enzyme and peptide/protein substrate in buffer was added. Compounds were pre-incubated in the presence of the enzyme and peptide/protein substrate for 5 minutes before initiation of the reaction by addition of 10 μl of ATP (final concentration selected for each kinase at 5, 20 or 50 μM). Assays were carried out for 30 minutes at room temperature before termination by the addition of 5 μl orthophosphoric acid. The assay plates were then harvested onto P81 Unifilter Plates by a Packard Harvester (wash buffer is 50 mM orthophosphoric acid) and dried in air. The dry Unifilter plates were then sealed by the addition of MicroScint O and counted in Packard Topcount NXT scintillation counters.

[2] = target: MKK1 (Homo sapiens, UniProt Q02750); test: Kinase profiling MKK1; conditions: 100 micromolar inhibitor concentration; 100 is no change
MKK1, sequence (Q02750 whole entry, species assumed): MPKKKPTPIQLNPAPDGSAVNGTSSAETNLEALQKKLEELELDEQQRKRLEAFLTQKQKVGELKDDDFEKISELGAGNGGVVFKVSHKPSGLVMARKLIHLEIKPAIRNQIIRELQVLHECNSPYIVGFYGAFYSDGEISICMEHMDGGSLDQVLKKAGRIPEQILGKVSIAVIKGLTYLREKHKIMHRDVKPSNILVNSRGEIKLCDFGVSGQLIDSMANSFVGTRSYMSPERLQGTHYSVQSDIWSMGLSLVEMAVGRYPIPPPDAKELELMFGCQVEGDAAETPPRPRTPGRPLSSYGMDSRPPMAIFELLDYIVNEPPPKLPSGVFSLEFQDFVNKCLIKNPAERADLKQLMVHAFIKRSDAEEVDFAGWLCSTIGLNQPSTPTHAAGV
Description: (§1) Any value less that 25 is considered to be highly significant inhibition.

[3] = target: S6K1 (Homo sapiens, UniProt P23443); test: Kinase profiling S6K1; conditions: 100 micromolar inhibitor concentration; 100 is no change
Description: as §1

[4] = target: PKA (Homo sapiens, UniProt P17612); test: Kinase profiling PKA; conditions: 100 micromolar inhibitor concentration; 100 is no change
Description: as §1

[5] = target: PKCa (Homo sapiens, UniProt P17252); test: Kinase profiling PKCa; conditions: 100 micromolar inhibitor concentration; 100 is no change
Description: as §1

[6] = target: ROCK 2 (Homo sapiens, UniProt O75116); test: Kinase profiling ROCK 2; conditions: 100 micromolar inhibitor concentration; 100 is no change
ROCK 2, sequence (O75116 whole entry, species assumed): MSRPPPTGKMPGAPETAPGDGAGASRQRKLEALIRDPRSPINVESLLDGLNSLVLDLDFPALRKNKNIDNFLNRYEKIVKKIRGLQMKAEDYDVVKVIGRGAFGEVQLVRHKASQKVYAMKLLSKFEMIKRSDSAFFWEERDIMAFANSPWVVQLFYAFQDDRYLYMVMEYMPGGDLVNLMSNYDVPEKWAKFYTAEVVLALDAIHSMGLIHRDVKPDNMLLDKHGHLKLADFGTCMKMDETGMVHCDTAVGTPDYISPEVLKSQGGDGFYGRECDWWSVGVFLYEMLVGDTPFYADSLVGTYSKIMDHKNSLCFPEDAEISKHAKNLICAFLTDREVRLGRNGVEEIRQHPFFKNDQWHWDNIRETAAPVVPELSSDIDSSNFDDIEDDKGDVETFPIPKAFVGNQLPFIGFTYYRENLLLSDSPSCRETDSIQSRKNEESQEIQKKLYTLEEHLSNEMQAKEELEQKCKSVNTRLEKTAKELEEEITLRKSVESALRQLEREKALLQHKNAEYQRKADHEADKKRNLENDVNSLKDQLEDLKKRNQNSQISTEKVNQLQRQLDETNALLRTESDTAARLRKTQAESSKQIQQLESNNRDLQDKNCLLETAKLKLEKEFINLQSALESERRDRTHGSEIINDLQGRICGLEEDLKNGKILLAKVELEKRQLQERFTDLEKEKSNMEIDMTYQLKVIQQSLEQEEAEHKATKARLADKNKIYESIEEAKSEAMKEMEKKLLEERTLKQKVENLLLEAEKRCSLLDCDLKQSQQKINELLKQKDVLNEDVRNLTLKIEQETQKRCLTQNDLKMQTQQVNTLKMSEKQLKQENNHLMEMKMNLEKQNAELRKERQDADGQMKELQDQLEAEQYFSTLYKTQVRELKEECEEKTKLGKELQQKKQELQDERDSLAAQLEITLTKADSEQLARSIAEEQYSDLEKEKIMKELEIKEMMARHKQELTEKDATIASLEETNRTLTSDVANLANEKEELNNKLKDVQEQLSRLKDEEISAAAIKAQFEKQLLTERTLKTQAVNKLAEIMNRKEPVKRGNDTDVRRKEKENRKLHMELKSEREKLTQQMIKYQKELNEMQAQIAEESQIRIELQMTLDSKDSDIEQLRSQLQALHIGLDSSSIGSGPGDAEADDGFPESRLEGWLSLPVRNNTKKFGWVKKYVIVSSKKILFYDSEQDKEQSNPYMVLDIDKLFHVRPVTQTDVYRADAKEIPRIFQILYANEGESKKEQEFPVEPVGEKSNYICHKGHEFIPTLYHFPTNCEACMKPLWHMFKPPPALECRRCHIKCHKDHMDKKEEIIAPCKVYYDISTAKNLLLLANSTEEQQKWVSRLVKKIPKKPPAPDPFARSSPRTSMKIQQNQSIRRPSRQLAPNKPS
Description: as §1

[7] = target: PRK2 (Homo sapiens, UniProt Q16513); test: Kinase profiling PRK2; conditions: 100 micromolar inhibitor concentration; 100 is no change
PRK2, sequence (Q16513 whole entry, species assumed): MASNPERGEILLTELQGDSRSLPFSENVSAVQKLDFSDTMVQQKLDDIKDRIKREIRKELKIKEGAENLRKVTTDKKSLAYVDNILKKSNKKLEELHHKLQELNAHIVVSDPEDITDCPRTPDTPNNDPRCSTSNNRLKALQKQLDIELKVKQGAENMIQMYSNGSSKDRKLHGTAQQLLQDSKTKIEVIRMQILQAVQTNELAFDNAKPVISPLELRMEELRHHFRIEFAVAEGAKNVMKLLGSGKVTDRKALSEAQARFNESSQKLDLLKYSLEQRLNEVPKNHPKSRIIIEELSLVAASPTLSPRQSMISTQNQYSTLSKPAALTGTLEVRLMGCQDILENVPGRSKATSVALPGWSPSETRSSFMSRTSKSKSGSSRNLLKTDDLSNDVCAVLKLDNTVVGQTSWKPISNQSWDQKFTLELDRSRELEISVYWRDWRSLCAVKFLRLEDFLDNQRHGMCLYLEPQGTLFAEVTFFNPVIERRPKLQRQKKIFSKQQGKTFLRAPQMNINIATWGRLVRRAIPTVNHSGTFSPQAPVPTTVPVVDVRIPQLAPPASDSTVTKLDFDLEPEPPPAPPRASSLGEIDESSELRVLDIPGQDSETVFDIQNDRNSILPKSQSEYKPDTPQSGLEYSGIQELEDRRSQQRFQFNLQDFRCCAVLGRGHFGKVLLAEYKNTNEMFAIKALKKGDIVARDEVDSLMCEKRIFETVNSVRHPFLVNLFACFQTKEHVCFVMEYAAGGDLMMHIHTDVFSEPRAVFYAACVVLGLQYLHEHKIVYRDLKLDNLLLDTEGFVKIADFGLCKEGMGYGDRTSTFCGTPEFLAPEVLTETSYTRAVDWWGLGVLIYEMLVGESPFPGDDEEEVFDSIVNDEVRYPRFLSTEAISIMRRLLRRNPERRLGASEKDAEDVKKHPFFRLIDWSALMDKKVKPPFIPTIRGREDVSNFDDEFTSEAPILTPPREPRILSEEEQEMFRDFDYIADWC
Description: as §1

[8] = target: PKBa (Homo sapiens, UniProt P31749); test: Kinase profiling PKBa; conditions: 100 micromolar inhibitor concentration; 100 is no change
PKBa, sequence (P31749 whole entry): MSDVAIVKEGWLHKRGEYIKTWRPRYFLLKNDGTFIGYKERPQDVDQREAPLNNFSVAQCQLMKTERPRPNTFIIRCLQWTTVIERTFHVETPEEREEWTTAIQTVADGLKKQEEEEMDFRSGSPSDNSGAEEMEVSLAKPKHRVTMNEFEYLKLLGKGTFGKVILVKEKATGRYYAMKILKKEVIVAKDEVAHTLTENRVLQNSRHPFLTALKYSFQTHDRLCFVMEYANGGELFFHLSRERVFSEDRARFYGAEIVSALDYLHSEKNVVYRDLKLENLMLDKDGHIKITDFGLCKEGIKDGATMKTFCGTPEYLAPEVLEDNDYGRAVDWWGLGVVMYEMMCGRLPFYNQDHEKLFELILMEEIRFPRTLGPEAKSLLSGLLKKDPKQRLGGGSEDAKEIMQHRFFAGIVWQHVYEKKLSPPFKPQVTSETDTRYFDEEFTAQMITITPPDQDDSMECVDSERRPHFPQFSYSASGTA
Description: as §1

[9] = target: JNK1 (Homo sapiens, UniProt P45983); test: Kinase profiling JNK1; conditions: 100 micromolar inhibitor concentration; 100 is no change
JNK1, sequence (P45983 whole entry, species assumed): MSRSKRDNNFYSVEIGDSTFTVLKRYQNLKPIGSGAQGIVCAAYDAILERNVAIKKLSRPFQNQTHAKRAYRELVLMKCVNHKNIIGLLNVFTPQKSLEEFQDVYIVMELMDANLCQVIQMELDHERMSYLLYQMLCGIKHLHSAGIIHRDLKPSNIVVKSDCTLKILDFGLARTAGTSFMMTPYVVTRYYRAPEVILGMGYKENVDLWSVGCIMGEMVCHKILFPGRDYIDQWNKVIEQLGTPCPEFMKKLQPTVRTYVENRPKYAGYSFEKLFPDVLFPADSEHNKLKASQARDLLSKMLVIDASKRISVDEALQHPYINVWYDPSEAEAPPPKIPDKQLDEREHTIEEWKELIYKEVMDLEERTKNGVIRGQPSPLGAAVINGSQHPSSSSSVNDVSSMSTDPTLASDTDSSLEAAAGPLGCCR
Description: as §1

[10] = target: T1, SGK1 (Homo sapiens, UniProt O00141); test: Kinase profiling SGK1; conditions: 100 micromolar inhibitor concentration; 100 is no change
T1 sequence (O00141 1-431): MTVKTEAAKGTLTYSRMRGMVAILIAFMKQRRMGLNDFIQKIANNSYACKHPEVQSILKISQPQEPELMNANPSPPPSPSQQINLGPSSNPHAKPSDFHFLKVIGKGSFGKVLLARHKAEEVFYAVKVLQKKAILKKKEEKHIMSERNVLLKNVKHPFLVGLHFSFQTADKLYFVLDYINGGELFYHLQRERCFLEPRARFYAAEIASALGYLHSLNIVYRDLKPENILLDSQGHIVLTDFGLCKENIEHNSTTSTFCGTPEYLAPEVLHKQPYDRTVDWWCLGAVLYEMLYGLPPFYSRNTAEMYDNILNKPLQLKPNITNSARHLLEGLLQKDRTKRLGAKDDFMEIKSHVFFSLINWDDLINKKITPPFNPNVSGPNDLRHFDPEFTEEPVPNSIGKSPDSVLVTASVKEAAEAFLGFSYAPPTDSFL
Description: as §1

[11] = target: T2, PKD1 (Homo sapiens, UniProt Q15139); test: Kinase profiling PKD1; conditions: 100 micromolar inhibitor concentration; 100 is no change
T2 sequence (Q15139 1-912): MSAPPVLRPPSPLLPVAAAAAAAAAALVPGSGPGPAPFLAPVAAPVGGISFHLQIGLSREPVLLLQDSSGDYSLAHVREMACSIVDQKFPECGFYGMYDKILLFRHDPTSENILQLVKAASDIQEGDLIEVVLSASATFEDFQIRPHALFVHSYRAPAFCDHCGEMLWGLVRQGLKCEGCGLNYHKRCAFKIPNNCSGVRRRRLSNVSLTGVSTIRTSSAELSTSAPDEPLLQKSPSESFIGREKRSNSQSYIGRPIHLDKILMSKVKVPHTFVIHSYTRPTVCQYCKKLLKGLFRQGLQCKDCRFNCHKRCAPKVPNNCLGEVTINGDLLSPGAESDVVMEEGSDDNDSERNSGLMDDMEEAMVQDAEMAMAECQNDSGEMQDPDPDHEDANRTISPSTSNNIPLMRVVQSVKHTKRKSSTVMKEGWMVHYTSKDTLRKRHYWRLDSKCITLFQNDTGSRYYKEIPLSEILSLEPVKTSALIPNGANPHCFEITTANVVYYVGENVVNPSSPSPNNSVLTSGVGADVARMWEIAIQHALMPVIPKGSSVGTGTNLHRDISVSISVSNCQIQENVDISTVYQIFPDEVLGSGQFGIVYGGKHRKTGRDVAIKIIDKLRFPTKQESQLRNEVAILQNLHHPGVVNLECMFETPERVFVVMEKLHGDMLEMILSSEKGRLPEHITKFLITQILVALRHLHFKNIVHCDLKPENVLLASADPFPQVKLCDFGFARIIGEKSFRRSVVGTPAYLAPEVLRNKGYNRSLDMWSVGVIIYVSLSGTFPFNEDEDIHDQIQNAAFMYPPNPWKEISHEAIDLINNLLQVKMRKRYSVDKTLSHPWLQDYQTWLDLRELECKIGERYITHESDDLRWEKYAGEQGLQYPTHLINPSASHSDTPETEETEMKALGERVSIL
Description: as §1

[12] = target: T3, PDK1 (Homo sapiens, UniProt O15530); test: Kinase profiling PDK1; conditions: 100 micromolar inhibitor concentration; 100 is no change
T3 sequence (O15530 1-556): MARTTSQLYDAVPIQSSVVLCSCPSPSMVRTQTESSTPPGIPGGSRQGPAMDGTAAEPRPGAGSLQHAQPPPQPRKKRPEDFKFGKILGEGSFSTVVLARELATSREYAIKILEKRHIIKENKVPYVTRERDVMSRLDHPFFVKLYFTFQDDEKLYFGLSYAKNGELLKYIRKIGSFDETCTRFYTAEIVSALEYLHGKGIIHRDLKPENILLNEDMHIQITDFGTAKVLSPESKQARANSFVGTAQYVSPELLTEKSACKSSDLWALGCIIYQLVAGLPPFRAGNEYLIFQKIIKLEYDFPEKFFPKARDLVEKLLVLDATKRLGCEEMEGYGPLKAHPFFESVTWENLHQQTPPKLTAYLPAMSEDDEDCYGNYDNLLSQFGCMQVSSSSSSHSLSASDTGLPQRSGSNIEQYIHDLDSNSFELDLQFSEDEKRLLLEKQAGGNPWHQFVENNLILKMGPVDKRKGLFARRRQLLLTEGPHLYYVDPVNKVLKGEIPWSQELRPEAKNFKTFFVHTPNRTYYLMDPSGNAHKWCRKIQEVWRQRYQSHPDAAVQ
Description: as §1

[13] = target: RSK1 (Homo sapiens, UniProt Q15418); test: Kinase profiling RSK1; conditions: 100 micromolar inhibitor concentration; 100 is no change
Description: as §1

[14] = target: p38a MAPK (Homo sapiens, UniProt Q16539); test: Kinase profiling p38a MAPK; conditions: 100 micromolar inhibitor concentration; 100 is no change
p38a MAPK, sequence (Q16539 whole entry): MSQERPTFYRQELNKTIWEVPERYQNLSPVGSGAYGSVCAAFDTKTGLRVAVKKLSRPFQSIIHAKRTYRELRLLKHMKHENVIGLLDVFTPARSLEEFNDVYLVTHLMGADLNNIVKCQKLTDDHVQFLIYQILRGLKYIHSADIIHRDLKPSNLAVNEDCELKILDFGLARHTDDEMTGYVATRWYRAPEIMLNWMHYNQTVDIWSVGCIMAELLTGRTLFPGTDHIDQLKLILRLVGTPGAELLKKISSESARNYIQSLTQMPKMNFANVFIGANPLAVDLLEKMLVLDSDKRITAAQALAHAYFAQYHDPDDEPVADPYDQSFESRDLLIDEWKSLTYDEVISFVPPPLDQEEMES
Description: as §1

| SMILES | IC50 [1] [µM] | residual kinase activity, MKK1 [2] | residual kinase activity, S6K1 [3] | residual kinase activity, PKA [4] | residual kinase activity, PKCa [5] | residual kinase activity, ROCK 2 [6] | residual kinase activity, PRK2 [7] | residual kinase activity, PKBa [8] | residual kinase activity, JNK1 [9] | residual kinase activity, SGK1 [10] | residual kinase activity, PKD1 [11] | residual kinase activity, PDK1 [12] | residual kinase activity, RSK1 [13] | residual kinase activity, p38a MAPK [14] |
| --- | --- | --- | --- | --- | --- | --- | --- | --- | --- | --- | --- | --- | --- | --- |
| CC(=O)Nc1nc2ccc(C(N)=O)cc2s1 [Compound 08-70] | 15.7 |  |  |  |  |  |  |  |  |  |  |  |  |  |
| CC(=O)Nc1ccc(C(=O)Nc2nc3ccc(O)cc3s2)cc1 [Compound 03-74] |  | 35 | 29 | 90 | 92 | 32 | 54 | 87 | 80 | 59 | 53 | 93 | 19 | 106 |
| COc1ccc2nc(NC(C)=O)sc2c1 [Compound 03-20] | 12.3 |  |  |  |  |  |  |  |  |  |  |  |  |  |
